Consider four compounds from patent US12679878B2, “CRF2 receptor agonists and their use in therapy” (SANOFI, priority 2020, dated 2026).

Each structure is given as a SMILES string. Starred links: 1 amine or outer side, 2 acyl side, 3 side chain; linkers in the order of their positions; H or OH if unused. Non-standard residues stand in square brackets, D forms with d. Residues, ends and D or L forms follow the SMILES beside them. Groups on a side chain read outwards from the residue. *: point of attachment. C18 diacid = O=C(O)CCCCCCCCCCCCCCCCC(=O)*; C16 diacid = O=C(O)CCCCCCCCCCCCCCC(=O)*; γGlu = O=C(O)[C@H](CCC(=O)[*:2])N[*:1]; Palmitoyl = CCCCCCCCCCCCCCCC(=O)*; AEEA = NCCOCCOCC(=O)O; Aib = CC(C)(N)C(=O)O Where only a bound is given, the exact number is not on record here.

The nature of assay [1]: Effect on blood pressure, telemetry (Example 17). In kind it is in vivo. To be noted: Sprague Dawley rats, 0.1 mg/kg SC. As for the experimental part:
The effect of the compounds on blood pressure was determined in telemetry studies in Sprague Dawley rats at a dosage of 0.1 mg/kg SC.
The rats were previously implanted with a telemetry device (DSI, Saint-Paul, USA, HD-S10, HD-S11 or HD S21) and allowed to recover for a minimum period of 2 weeks before treatment with vehicle or the different peptides. Blood pressure (BP) was recorded through a catheter inserted into the abdominal aorta. The device body was placed in the abdomen. At the end of surgery, animals were placed in individual cages until the end of the study.
Pressure signals were recorded for one hour before the treatment (basal period). Thereafter, the subcutaneous administration of the test compound or its vehicle was performed, under continuous recording of the signal over a 48-hour period. Data acquisition was performed using Hem 4.3 acquisition software (Notocord®, Le Pecq, France) connected to the telemetry device. Hemodynamic parameters were recorded during a […] before treatment and every 4-hour period following subcutaneous administration over 48 hours.
Investigated parameters (calculated from BP signal) were Heart Rate (HR) in beats per minute (bpm), Diastolic and Systolic Blood Pressure (DBP) in mmHg, and Mean Blood Pressure (MBP) in mmHg.
Data from Hem were manipulated using Microsoft Excel®. For each parameter, a basal value was determined as the average calculated over a 1-hour period during the pre-treatment sequence, and the values post treatment were calculated over 4-hour periods ([0-4], [4-8], [8-12], [12-16], [16-20], [20-24], [24-28], [32-36], [36-40], [40-44] and [44-48] hours) covering the 48-hour period following administration.
Representative data are presented in Table 15 below, in which “n” represents the number of animals for which individual values were obtained and “Duration” indicates the last time point for which a significant effect on BP was still seen: Table 15

For assay [2], the target named is T1, CRF1R receptor (Homo sapiens, UniProt P34998).
T1 construct: host or cells: CHO-K1 clone 2
T1 sequence (P34998 24-415): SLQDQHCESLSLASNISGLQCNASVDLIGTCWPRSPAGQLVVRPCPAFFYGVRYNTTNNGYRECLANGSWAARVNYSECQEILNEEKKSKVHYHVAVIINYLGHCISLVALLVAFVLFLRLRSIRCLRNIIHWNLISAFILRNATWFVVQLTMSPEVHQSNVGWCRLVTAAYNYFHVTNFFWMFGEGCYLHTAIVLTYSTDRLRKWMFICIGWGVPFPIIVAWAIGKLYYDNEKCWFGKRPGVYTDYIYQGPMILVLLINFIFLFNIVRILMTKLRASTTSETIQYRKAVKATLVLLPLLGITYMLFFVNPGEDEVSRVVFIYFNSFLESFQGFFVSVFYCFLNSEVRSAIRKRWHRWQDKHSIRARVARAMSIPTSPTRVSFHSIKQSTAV
Kind of assay: cAMP activity at anti-target CRF1R, CHO-K1 cell line clone 2 (Example 19.10). In kind it is cell-based. To be noted: for CRF1/CRF2 ratio: ratio of CRF1 EC50 to CRF2 EC50. The method in brief: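 A CRF1R-overexpressing CHO-K1 line (clone 2) was grown in F12/10% FBS/G418 and frozen in aliquots before use. The cAMP assay followed the preceding procedure, with 100% activation defined by Sauvagine at 100 nM.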

The target in assay [3] is T2, human CRF2α receptor (Homo sapiens, UniProt Q13324).
T2 construct: expressed in transfected cells; host or cells: TeloHEAC
T2 sequence (Q13324 1-411): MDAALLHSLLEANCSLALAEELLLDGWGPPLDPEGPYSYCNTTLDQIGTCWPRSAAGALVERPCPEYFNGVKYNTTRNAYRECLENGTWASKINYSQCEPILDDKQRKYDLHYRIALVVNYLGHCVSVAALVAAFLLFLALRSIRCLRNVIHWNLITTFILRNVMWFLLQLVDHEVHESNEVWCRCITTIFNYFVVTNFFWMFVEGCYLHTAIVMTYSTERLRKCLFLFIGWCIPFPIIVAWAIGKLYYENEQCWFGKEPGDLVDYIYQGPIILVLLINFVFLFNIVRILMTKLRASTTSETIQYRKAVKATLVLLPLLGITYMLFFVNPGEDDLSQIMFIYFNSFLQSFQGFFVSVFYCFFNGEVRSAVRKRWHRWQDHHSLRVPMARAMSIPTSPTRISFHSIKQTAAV
Kind of assay: cAMP agonism at human CRF2α receptor in TeloHEAC cells, FA modified peptides (Example 19.9). The following applies: 0% HSA, relative to urocortin 2. In kind it is cell-based. The method in brief:
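Efficacy and EC50 are referenced to 100 nM urocortin 2 as 100%, with cAMP measured as the 665/620 nm HTRF ratio after 1 h at room temperature. Compounds (0.5 mM DMSO stock, 16 twofold dilutions) acted 30 min at 37 °C on CRF2α-expressing TeloHEAC cells, buffer containing IBMX and 0% or 0.2% HSA.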

Take `CC[C@H](C)[C@H](N)C(=O)N[C@H](C(=O)N[C@@H](CC(C)C)C(=O)N[C@@H](CO)C(=O)N[C@@H](CC(C)C)C(=O)N[C@@H](CC(=O)O)C(=O)N[C@@H](C(=O)N1CCC[C@H]1C(=O)N[C@H](C(=O)N[C@@H](CCCCN)C(=O)N[C@@H](CC(C)C)C(=O)N[C@@H](CCCCNC(=O)COCCOCCNC(=O)COCCOCCNC(=O)CC[C@H](NC(=O)CCCCCCCCCCCCCCCCC(=O)O)C(=O)O)C(=O)N[C@@H](CCC(N)=O)C(=O)N[C@H](C(=O)N[C@@H](CC(C)C)C(=O)N[C@@H](CC(C)C)C(=O)N[C@@H](CCCCN)C(=O)N[C@@H](CCC(N)=O)C(=O)N[C@@H](CCC(=O)O)C(=O)N[C@@H](CCCNC(=N)N)C(=O)N[C@@H](CCC(N)=O)C(=O)N[C@@H](CCCCN)C(=O)NC(C)(C)C(=O)N[C@@H](CCC(N)=O)C(=O)N[C@@H](CCCNC(=N)N)C(=O)N[C@@H](CCC(=O)O)C(=O)N[C@@H](CCC(N)=O)C(=O)N[C@@H](C)C(=O)N[C@@H](CCC(=O)O)C(=O)N[C@@H](CCCCN)C(=O)N[C@@H](CC(N)=O)C(=O)N[C@@H](CCCCN)C(=O)N[C@@H](CCC(N)=O)C(=O)N[C@H](C(=O)N[C@@H](CC(C)C)C(=O)N[C@@H](C)C(=O)N[C@@H](CCC(N)=O)C(=O)N[C@H](C(N)=O)C(C)C)[C@@H](C)CC)[C@@H](C)CC)[C@@H](C)CC)C(C)C)C(C)C` [SEQ ID NO: 130, IVLSLDvPIKLK*QILLKQERQKAibQREQAEKNKQILAQV-NH2] (H-IVLSLD[dV]PIKLK([AEEA-AEEA-γGlu-C18 diacid])QILLKQERQK[Aib]QREQAEKNKQILAQV-NH2): the “Duration (h): last time point for which a significant effect on BP was still seen” value in assay [1] is 30 h. Also, the “Effect on Systolic Pressure % change from baseline 8 h” value in assay [1] (8 h) is −15.2%. Moreover, in assay [1] (24 h), the “Effect on Systolic Pressure % change from baseline 24 h” value is on record as −9.9%.

One may read the EC50 as the concentration needed to bring the measured effect to its halfway point. Regarding `CCCCCCCCCCCCCCCC(=O)N[C@@H](CCC(=O)NCCCC[C@H](NC(=O)[C@H](CC(C)C)NC(=O)[C@H](CCCCN)NC(=O)[C@@H](NC(=O)[C@@H]1CCCN1C(=O)[C@H](NC(=O)[C@H](CC(=O)O)NC(=O)[C@H](CC(C)C)NC(=O)[C@H](CO)NC(=O)[C@H](CC(C)C)NC(=O)[C@@H](NC(=O)[C@@H](N)[C@@H](C)CC)C(C)C)C(C)C)[C@@H](C)CC)C(=O)N[C@@H](CCC(N)=O)C(=O)N[C@H](C(=O)N[C@@H](CC(C)C)C(=O)N[C@@H](CC(C)C)C(=O)N[C@@H](CCCCN)C(=O)N[C@@H](CCC(N)=O)C(=O)N[C@@H](C)C(=O)N[C@@H](CCCNC(=N)N)C(=O)N[C@@H](CCC(N)=O)C(=O)N[C@@H](CCCCN)C(=O)NC(C)(C)C(=O)N[C@@H](CCC(N)=O)C(=O)N[C@@H](CCCNC(=N)N)C(=O)N[C@@H](C)C(=O)N[C@@H](CCC(N)=O)C(=O)N[C@@H](C)C(=O)N[C@@H](CCC(=O)O)C(=O)N[C@@H](CCCCN)C(=O)N[C@@H](CC(N)=O)C(=O)N[C@@H](CCCCN)C(=O)N[C@@H](CCCNC(=N)N)C(=O)N[C@H](C(=O)N[C@@H](CC(C)C)C(=O)N[C@@H](CCC(=O)O)C(=O)N[C@@H](CCCNC(=N)N)C(=O)N[C@H](C(N)=O)C(C)C)[C@@H](C)CC)[C@@H](C)CC)C(=O)O` [compound 219] (H-IVLSLD[dV]PIKLK([γGlu-Palmitoyl])QILLKQARQK[Aib]QRAQAEKNKRILERV-NH2), the CRF1/CRF2 ratio in assay [2] was determined as 2. Moreover, the EC50 in assay [3] was 5.98 nM.

With `CCCCCCCCCCCCCCCC(=O)N[C@@H](CCC(=O)NCCCC[C@H](NC(=O)[C@H](CC(C)C)NC(=O)CNC(=O)[C@@H](NC(=O)[C@@H]1CCCN1C(=O)[C@H](NC(=O)[C@H](CC(=O)O)NC(=O)[C@H](CC(C)C)NC(=O)[C@H](CO)NC(=O)[C@H](CC(C)C)NC(=O)[C@@H](NC(=O)[C@@H](N)[C@@H](C)CC)C(C)C)C(C)C)[C@@H](C)CC)C(=O)N[C@@H](CCC(N)=O)C(=O)N[C@H](C(=O)N[C@@H](CC(C)C)C(=O)N[C@@H](CC(C)C)C(=O)N[C@@H](CCCCN)C(=O)N[C@@H](CCC(N)=O)C(=O)N[C@@H](CCC(=O)O)C(=O)N[C@@H](CCCNC(=N)N)C(=O)N[C@@H](CCC(N)=O)C(=O)N[C@@H](CCCCN)C(=O)N[C@@H](CCCCN)C(=O)NC(C)(C)C(=O)N[C@@H](CCCNC(=N)N)C(=O)N[C@@H](CCC(N)=O)C(=O)N[C@@H](CCC(N)=O)C(=O)N[C@@H](C)C(=O)N[C@@H](CCC(=O)O)C(=O)N[C@H](C(=O)N[C@@H](CC(N)=O)C(=O)N[C@@H](CCCCN)C(=O)N[C@@H](CCCNC(=N)N)C(=O)N[C@H](C(=O)N[C@@H](CC(C)C)C(=O)N[C@@H](CCC(=O)O)C(=O)N[C@@H](CCCNC(=N)N)C(=O)N[C@H](C(N)=O)C(C)C)[C@@H](C)CC)[C@@H](C)O)[C@@H](C)CC)C(=O)O` [compound 220] (H-IVLSLD[dV]PIGLK([γGlu-Palmitoyl])QILLKQERQKK[Aib]RQQAETNKRILERV-NH2; N-terminus assumed), the CRF1/CRF2 ratio in assay [2] amounted to 6. In assay [3], this compound displayed an EC50 of 1.48 nM.

As usually defined, the Emax is the maximal effect, on the per cent scale that the assay sets. For the compound `CC[C@H](C)[C@H](N)C(=O)N[C@H](C(=O)N[C@@H](CC(C)C)C(=O)N[C@@H](CO)C(=O)N[C@@H](CC(C)C)C(=O)N[C@@H](CC(=O)O)C(=O)N[C@@H](C(=O)N1CCC[C@H]1C(=O)N[C@H](C(=O)N[C@@H](CCCCN)C(=O)N[C@@H](CC(C)C)C(=O)N[C@@H](CCCCNC(=O)CC[C@H](NC(=O)CCCCCCCCCCCCCCC(=O)O)C(=O)O)C(=O)N[C@@H](CCC(N)=O)C(=O)N[C@@H](CCCCN)C(=O)N[C@@H](CC(C)C)C(=O)N[C@@H](CC(C)C)C(=O)N[C@@H](CCCCN)C(=O)N[C@@H](CCC(N)=O)C(=O)N[C@@H](CCC(=O)O)C(=O)N[C@@H](CCCNC(=N)N)C(=O)N[C@@H](CCC(N)=O)C(=O)N[C@@H](CCCNC(=N)N)C(=O)N[C@@H](CCCCN)C(=O)N[C@@H](CCC(=O)O)C(=O)N[C@@H](CCCNC(=N)N)C(=O)N[C@@H](CCC(=O)O)C(=O)N[C@@H](CCC(N)=O)C(=O)N[C@@H](C)C(=O)N[C@@H](CCC(=O)O)C(=O)N[C@@H](CCCCN)C(=O)N[C@@H](CC(N)=O)C(=O)N[C@@H](C)C(=O)N[C@@H](CCCNC(=N)N)C(=O)N[C@H](C(=O)N[C@@H](CC(C)C)C(=O)N[C@@H](C)C(=O)N[C@@H](CCCNC(=N)N)C(=O)N[C@H](C(N)=O)C(C)C)[C@@H](C)CC)[C@@H](C)O)C(C)C)C(C)C` [compound 221] (H-IVLSLD[dV]PTKLK([γGlu-C16 diacid])QKLLKQERQRKEREQAEKNARILARV-NH2; N-terminus assumed), the EC50 is greater than 100 nM in assay [2] (0% HSA, CRF1R CHO-K1 clone 2, read-out: EC50 [nM] 0% HSA) and 2.71 nM in assay [3]. Also, in assay [2] (100% = Sauvagine at 100 nM, CRF1R CHO-K1 clone 2), the maximal response (Emax) stood at 3.2%.
